According to PubChem BioAssay (NCI):
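These data come from cells grown in 96-well plates and exposed to compound for 48 hours at five concentrations. GI50 marks 50% less growth. The concentration for full growth arrest is given as TGI.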

Key:
Assay in all cases: inhibition of tumour cell growth, NCI panel, 48 h
786-0 renal = tested on: 786-0 renal
A498 renal = tested on: A498 renal
A549 NSCLC = tested on: A549 NSCLC
ACHN renal = tested on: ACHN renal
BT-549 breast = tested on: BT-549 breast
CAKI-1 renal = tested on: CAKI-1 renal
CCRF-CEM leukemia = tested on: CCRF-CEM leukemia
COLO 205 colon = tested on: COLO 205 colon
DU-145 prostate = tested on: DU-145 prostate
EKVX NSCLC = tested on: EKVX NSCLC
HCC-2998 colon = tested on: HCC-2998 colon
HCT-116 colon = tested on: HCT-116 colon
HCT-15 colon = tested on: HCT-15 colon
HL-60(TB) leukemia = tested on: HL-60(TB) leukemia
HOP-62 NSCLC = tested on: HOP-62 NSCLC
HOP-92 NSCLC = tested on: HOP-92 NSCLC
HS 578T breast = tested on: HS 578T breast
HT29 colon = tested on: HT29 colon
IGROV1 ovarian = tested on: IGROV1 ovarian
KM12 colon = tested on: KM12 colon
M14 melanoma = tested on: M14 melanoma
MALME-3M melanoma = tested on: MALME-3M melanoma
MDA-MB-231 breast = tested on: MDA-MB-231 breast
MDA-MB-435 = tested on: MDA-MB-435
MDA-MB-468 breast = tested on: MDA-MB-468 breast
MOLT-4 leukemia = tested on: MOLT-4 leukemia
NCI-H226 lung = tested on: NCI-H226 lung
NCI-H23 lung = tested on: NCI-H23 lung
NCI-H460 lung = tested on: NCI-H460 lung
NCI-H522 lung = tested on: NCI-H522 lung
NCI/ADR-RES ovarian = tested on: NCI/ADR-RES ovarian
OVCAR-3 ovarian = tested on: OVCAR-3 ovarian
OVCAR-4 ovarian = tested on: OVCAR-4 ovarian
OVCAR-5 ovarian = tested on: OVCAR-5 ovarian
OVCAR-8 ovarian = tested on: OVCAR-8 ovarian
PC-3 prostate = tested on: PC-3 prostate
RPMI-8226 leukemia = tested on: RPMI-8226 leukemia
RXF 393 renal = tested on: RXF 393 renal
SF-268 CNS = tested on: SF-268 CNS
SF-539 CNS = tested on: SF-539 CNS
SK-MEL-2 melanoma = tested on: SK-MEL-2 melanoma
SK-MEL-28 melanoma = tested on: SK-MEL-28 melanoma
SK-MEL-5 melanoma = tested on: SK-MEL-5 melanoma
SK-OV-3 ovarian = tested on: SK-OV-3 ovarian
SN12C renal = tested on: SN12C renal
SNB-19 CNS = tested on: SNB-19 CNS
SNB-75 CNS = tested on: SNB-75 CNS
SR leukemia = tested on: SR leukemia
SW-620 colon = tested on: SW-620 colon
T-47D breast = tested on: T-47D breast
TK-10 renal = tested on: TK-10 renal
U251 CNS = tested on: U251 CNS
UACC-257 melanoma = tested on: UACC-257 melanoma
UACC-62 melanoma = tested on: UACC-62 melanoma
UO-31 renal = tested on: UO-31 renal

Cn1cc(-c2cc(N)n3nc(-c4cn(C)c5ccccc45)cc3n2)c2cc(Br)ccc21
GI50 (786-0 renal): 1570 nM | TGI (786-0 renal): 2990 nM | GI50 (A498 renal): 1740 nM | TGI (A498 renal): 3890 nM | GI50 (A549 NSCLC): 2440 nM | TGI (A549 NSCLC): > 100000 nM | GI50 (ACHN renal): 1780 nM | TGI (ACHN renal): 4050 nM | GI50 (BT-549 breast): 2290 nM | TGI (BT-549 breast): 5650 nM | GI50 (CAKI-1 renal): 1440 nM | TGI (CAKI-1 renal): 2960 nM | GI50 (CCRF-CEM leukemia): 2870 nM | TGI (CCRF-CEM leukemia): 11700 nM | GI50 (COLO 205 colon): 1950 nM | TGI (COLO 205 colon): 3900 nM | GI50 (DU-145 prostate): 4960 nM | TGI (DU-145 prostate): > 100000 nM | GI50 (EKVX NSCLC): 1750 nM | TGI (EKVX NSCLC): 6710 nM | GI50 (HCC-2998 colon): 1810 nM | TGI (HCC-2998 colon): 3490 nM | GI50 (HCT-116 colon): 1590 nM | TGI (HCT-116 colon): 2930 nM | GI50 (HCT-15 colon): 1710 nM | TGI (HCT-15 colon): 4590 nM | GI50 (HL-60(TB) leukemia): 2080 nM | TGI (HL-60(TB) leukemia): 5530 nM | GI50 (HOP-62 NSCLC): 2240 nM | TGI (HOP-62 NSCLC): 6010 nM | GI50 (HOP-92 NSCLC): 1480 nM | TGI (HOP-92 NSCLC): 3160 nM | GI50 (HS 578T breast): 2440 nM | TGI (HS 578T breast): 5920 nM | GI50 (HT29 colon): 1700 nM | TGI (HT29 colon): 3250 nM | GI50 (IGROV1 ovarian): 1820 nM | TGI (IGROV1 ovarian): 5070 nM | GI50 (KM12 colon): 2020 nM | TGI (KM12 colon): 4660 nM | GI50 (M14 melanoma): 1820 nM | TGI (M14 melanoma): 3680 nM | GI50 (MALME-3M melanoma): 1660 nM | TGI (MALME-3M melanoma): 3080 nM | GI50 (MDA-MB-231 breast): 1700 nM | TGI (MDA-MB-231 breast): 3120 nM | GI50 (MDA-MB-435): 1870 nM | TGI (MDA-MB-435): 3670 nM | GI50 (MDA-MB-468 breast): 1570 nM | TGI (MDA-MB-468 breast): 3730 nM | GI50 (MOLT-4 leukemia): 1600 nM | TGI (MOLT-4 leukemia): 7550 nM | GI50 (NCI-H226 lung): 25100 nM | TGI (NCI-H226 lung): > 100000 nM | GI50 (NCI-H23 lung): 2360 nM | TGI (NCI-H23 lung): 7020 nM | GI50 (NCI-H460 lung): 1960 nM | TGI (NCI-H460 lung): 4030 nM | GI50 (NCI-H522 lung): 1550 nM | TGI (NCI-H522 lung): 3210 nM | GI50 (NCI/ADR-RES ovarian): 2450 nM | TGI (NCI/ADR-RES ovarian): 6770 nM | GI50 (OVCAR-3 ovarian): 2220 nM | TGI (OVCAR-3 ovarian): 5160 nM | GI50 (OVCAR-4 ovarian): 2460 nM | TGI (OVCAR-4 ovarian): 6340 nM | GI50 (OVCAR-5 ovarian): 2550 nM | TGI (OVCAR-5 ovarian): 7800 nM | GI50 (OVCAR-8 ovarian): 1830 nM | TGI (OVCAR-8 ovarian): 3670 nM | GI50 (PC-3 prostate): 1870 nM | TGI (PC-3 prostate): 4690 nM | GI50 (RPMI-8226 leukemia): 2480 nM | TGI (RPMI-8226 leukemia): 8150 nM | GI50 (RXF 393 renal): 1800 nM | TGI (RXF 393 renal): 3460 nM | GI50 (SF-268 CNS): 2660 nM | TGI (SF-268 CNS): 8950 nM | GI50 (SF-539 CNS): 1580 nM | TGI (SF-539 CNS): 3090 nM | GI50 (SK-MEL-2 melanoma): 1680 nM | TGI (SK-MEL-2 melanoma): 3360 nM | GI50 (SK-MEL-28 melanoma): 1720 nM | TGI (SK-MEL-28 melanoma): 3140 nM | GI50 (SK-MEL-5 melanoma): 1890 nM | TGI (SK-MEL-5 melanoma): 3500 nM | GI50 (SK-OV-3 ovarian): 3720 nM | TGI (SK-OV-3 ovarian): 17200 nM | GI50 (SN12C renal): 1660 nM | TGI (SN12C renal): 3180 nM | GI50 (SNB-19 CNS): 3240 nM | TGI (SNB-19 CNS): 25900 nM | GI50 (SNB-75 CNS): 2410 nM | TGI (SNB-75 CNS): 9590 nM | GI50 (SR leukemia): 1700 nM | TGI (SR leukemia): 7300 nM | GI50 (SW-620 colon): 2160 nM | TGI (SW-620 colon): 5000 nM | GI50 (T-47D breast): 2070 nM | TGI (T-47D breast): 5700 nM | GI50 (TK-10 renal): 2190 nM | TGI (TK-10 renal): 4810 nM | GI50 (U251 CNS): 1790 nM | TGI (U251 CNS): 3650 nM | GI50 (UACC-257 melanoma): 1730 nM | TGI (UACC-257 melanoma): 3340 nM | GI50 (UACC-62 melanoma): 1580 nM | TGI (UACC-62 melanoma): 3050 nM | GI50 (UO-31 renal): 1480 nM | TGI (UO-31 renal): 2850 nM

CC(C)(C)n1cc(-c2ccnc(NCCCNS(=O)(=O)c3ccc(Br)cc3)c2)c(-c2cccc(O)c2)n1
GI50 (MDA-MB-468 breast): 2100 nM | TGI (MDA-MB-468 breast): 4800 nM

CC(=O)c1cc(-c2ccccc2N)n(-c2ccc3c(c2)OCO3)c1C
GI50 (MDA-MB-468 breast): 50.7 nM | TGI (MDA-MB-468 breast): > 72100 nM

CC12CC=CCC1CCC1C2CCC2(C)C(c3ccc(=O)oc3)CCC12O (stereo not given)
GI50 (MDA-MB-468 breast): 276 nM | TGI (MDA-MB-468 breast): 858 nM

C/C(=C(/c1ccc(O)cc1)c1ccc(Cl)cc1)c1ccccc1
GI50 (MDA-MB-468 breast): 601 nM | TGI (MDA-MB-468 breast): 2020 nM

Clc1ccc2c(c1)C(N1CCNCC1)=Nc1ccccc1O2
GI50 (MDA-MB-468 breast): 1220 nM | TGI (MDA-MB-468 breast): 2480 nM
